Tests used:
[1] = biological target: T1, recombinant human plasminogen activator inhibitor-1 (PAI-1) (Homo sapiens, UniProt P05121); test: Primary Screen for the PAI-1 Inhibition (residual tPA activity, chromogenic substrate Spectrozyme-tPA); format: biochemical; conditions: 140 nM PAI-1, 70 nM tPA, pH 6.6; for inhibition at 25 µM: 25 μM test compound; for inhibition at 100 µM: 100 μM test compound
T1 construct: purchased Molecular Innovations, Royal Oak, Mich
Procedure: (§1) Test compounds are dissolved in DMSO at a final concentration of 10 mM, then diluted 101× in physiologic buffer. The inhibitory assay is initiated by the addition of the test compound (1-100 μM final concentration, maximum DMSO concentration of 0.2%) in a pH 6.6 buffer containing 140 nM recombinant human plasminogen activator inhibitor-1 (PAI-1; Molecular Innovations, Royal Oak, Mich.). Following a 1 hour incubation at room temperature, 70 nM of recombinant human tissue plasminogen activator (tPA) is added, and the combination of the test compound, PAI-1 and tPA is incubated for an additional 30 minutes. Following the second incubation, Spectrozyme-tPA (American Diagnostica, Greenwich, Conn.), a chromogenic substrate for tPA, is added and absorbance read at 405 nm at 0 and 60 minutes. Relative PAI-1 inhibition is equal to the residual tPA activity in the presence of the test compound and PAI-1. Control treatments include the complete inhibition of tPA by PAI-1 at the molar ratio employed (2:1), and the absence of any effect of the test compound on tPA alone.

[2] = biological target: T1, recombinant human plasminogen activator inhibitor-1 (PAI-1); test: Kinetic IC50: modification of the Primary Screen for the PAI-1 Inhibition; format: biochemical
Procedure: as §1

T1 sequence (P05121 24-402): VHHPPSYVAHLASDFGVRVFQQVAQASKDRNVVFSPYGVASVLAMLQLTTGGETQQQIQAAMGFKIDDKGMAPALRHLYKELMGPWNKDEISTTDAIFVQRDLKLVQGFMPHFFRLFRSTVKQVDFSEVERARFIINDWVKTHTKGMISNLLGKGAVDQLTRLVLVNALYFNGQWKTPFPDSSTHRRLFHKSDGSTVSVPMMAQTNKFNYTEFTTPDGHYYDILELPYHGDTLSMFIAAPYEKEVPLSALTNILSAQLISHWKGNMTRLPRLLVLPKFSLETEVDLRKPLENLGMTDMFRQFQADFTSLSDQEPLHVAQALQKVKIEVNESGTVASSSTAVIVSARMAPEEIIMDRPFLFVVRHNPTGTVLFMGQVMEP

Question: Which inhibition at 25 µM [1] does the source give for O=C(O)C(Cc1ccccc1)Oc1cccc(-c2ccc(NC(=O)C3(c4cccc(F)c4)CCCC3)cc2)c1 (stereo not drawn) [Compound 30, 2-{[4′-({[1-(3-fluorophenyl)cyclopentyl]carbonyl}amino)-1,1′-biphenyl-3-yl]oxy}-3-phenylpropanoic acid] here?
Answer: 23%

Question: What about the inhibition at 100 µM [1] of the same compound?
Answer: 73%

Question: What about the IC50 [2] of the same compound?
Answer: 17.4 µM

Question: Which results are given for O=C(O)C(Cc1ccccc1)Oc1ccc(-c2ccc(NC(=O)C3(c4ccccc4)CCCC3)cc2)cc1 (stereo not drawn) [Compound 31, 3-phenyl-2-[(4′-{[(1-phenylcyclopentyl)carbonyl]amino}-1,1′-biphenyl-4-yl)oxy]Propanoic acid]?
Answer: inhibition at 25 µM [1]: 24%; inhibition at 100 µM [1]: 51%; IC50 [2]: 31.1 µM

Question: How did the inhibition at 25 µM [1] turn out when O=C(O)C(Cc1ccccc1)Oc1ccc(-c2ccc(NC(=O)C3(c4ccccc4)CC3)cc2)cc1 (stereo not drawn) [Compound 32, 3-phenyl-2-[(4′-{[(1-phenylcyclopropyl)carbonyl]amino}-1,1′-biphenyl-4-yl)oxy]Propanoic acid] was run?
Answer: 15%

Question: And the inhibition at 100 µM [1]?
Answer: 78%

Question: And the IC50 [2]?
Answer: 4.04 µM

Question: O=C(O)C(Cc1ccccc1)Oc1ccc(-c2ccc(NC(=O)C3(c4ccc(Cl)cc4)CC3)cc2)cc1 (stereo not drawn) [Compound 33, 2-{[4′-({[1-(4-chlorophenyl)cyclopropyl]carbonyl}amino)-1,1′-biphenyl-4-yl]oxy}-3-phenylpropanoic acid] was tested. Which inhibition at 25 µM [1] did it give?
Answer: 22%

Question: And the inhibition at 100 µM [1]?
Answer: 79%

Question: What about the IC50 [2] of the same compound?
Answer: 13.9 µM

Question: For O=C(O)C(Cc1ccccc1)Oc1ccc(-c2ccc(NC(=O)C3(c4cccc(F)c4)CCCC3)cc2)cc1 (stereo not drawn) [Compound 34, 2-{[4′-({[1-(3-fluorophenyl)cyclopentyl]carbonyl}amino)-1,1′-biphenyl-4-yl]oxy}-3-phenylpropanoic acid], which inhibition at 25 µM [1] is on record?
Answer: 33%

Question: What about the inhibition at 100 µM [1] of the same compound?
Answer: 70%

Question: And the IC50 [2]?
Answer: 38.6 µM

Question: Which inhibition at 25 µM [1] does the source give for O=C(O)COc1ccc(-c2ccc(NC(=O)C3(c4ccc(Cl)cc4)CCC3)cc2)cc1 [Compound 35, {[4′-({[1-(4-chlorophenyl)cyclobutyl]carbonyl}amino)-1,1′-biphenyl-4-yl]oxy}acetic acid] here?
Answer: 15%

Question: And the inhibition at 100 µM [1]?
Answer: 80%

Question: What about the IC50 [2] of the same compound?
Answer: 39.3 µM

Question: What does the source list for O=C(O)COc1ccc(-c2ccc(NC(=O)c3cc(-c4ccc(-c5ccccc5)cc4)oc3C(F)(F)F)cc2)cc1 [Compound 36, [(4′-{[5-(1,1′-biphenyl-4-yl)-2-(trifluoromethyl)-3-furoyl]amino}-1,1′-biphenyl-4-yl)oxy]acetic acid]?
Answer: inhibition at 25 µM [1]: 29%; inhibition at 100 µM [1]: 75%; IC50 [2]: 18.3 µM

Question: With O=C(Nc1ccc(-c2cccc(OC(Cc3ccccc3)C(=O)O)c2)cc1)c1ccc(Oc2ccccc2)cc1 (stereo not drawn) [Compound 37, 2-({4′-[(4-phenoxybenzoyl)amino]-1,1′-biphenyl-3-yl}oxy)-3-phenylpropanoic acid] as the compound, how does the inhibition at 25 µM [1] read?
Answer: 13%

Question: And the inhibition at 100 µM [1]?
Answer: 65%

Question: What about the IC50 [2] of the same compound?
Answer: 18.1 µM

Question: What does the source list for O=C(Nc1ccc(-c2cccc(OC(Cc3ccccc3)C(=O)O)c2)cc1)c1ccc(-c2ccc(Cl)cc2)s1 (stereo not drawn) [Compound 38, 2-{[4′-({[5-(4-chlorophenyl)thien-2-yl]carbonyl}amino)-1,1′-biphenyl-3-yl]oxy}-3-phenylpropanoic acid]?
Answer: inhibition at 25 µM [1]: 5%; inhibition at 100 µM [1]: 52%; IC50 [2]: 38.7 µM

Question: With O=C(O)C(Cc1ccccc1)Oc1cccc(-c2ccc(NC(=O)C3(c4ccc(Cl)cc4)CCC3)cc2)c1 (stereo not drawn) [Compound 39, 2-{[4′-({[1-(4-chlorophenyl)cyclobutyl]carbonyl}amino)-1,1′-biphenyl-3-yl]oxy}-3-phenylpropanoic acid] as the compound, how does the inhibition at 25 µM [1] read?
Answer: 40%

Question: What about the inhibition at 100 µM [1] of the same compound?
Answer: 81%

Question: What about the IC50 [2] of the same compound?
Answer: 12 µM

Question: Which results are given for O=C(Nc1ccc(-c2cccc(OC(Cc3ccccc3)C(=O)O)c2)cc1)c1cc(-c2ccccc2Cl)oc1C(F)(F)F (stereo not drawn) [Compound 40, 2-[(4′-{[5-(2-chlorophenyl)-2-(trifluoromethyl)-3-furoyl]amino}-1,1′-biphenyl-3-yl)oxy]-3-phenylpropanoic acid]?
Answer: inhibition at 25 µM [1]: 31%; inhibition at 100 µM [1]: 90%; IC50 [2]: 10.2 µM
